Each structure is given as a SMILES string. Starred links: 1 amine or outer side, 2 acyl side, 3 side chain; linkers in the order of their positions; H or OH if unused. Positions of bridges follow the written chain, without caps; N, C: chain ends. Non-standard residues stand in square brackets, D forms with d. Residues, ends and D or L forms follow the SMILES beside them. *: point of attachment. hPhe(3-Cl-4-CF3) = N[C@@H](CCc1ccc(C(F)(F)F)c(Cl)c1)C(=O)O; NMePhe(4-CF3) = CN[C@@H](Cc1ccc(C(F)(F)F)cc1)C(=O)O; hPhe(4-CF3) = N[C@@H](CCc1ccc(C(F)(F)F)cc1)C(=O)O; Pro(cis-4-Ph) = O=C(O)[C@@H]1C[C@H](c2ccccc2)CN1; NMePhe(4-Cl) = CN[C@@H](Cc1ccc(Cl)cc1)C(=O)O; NMedβ3hAla = C[C@H](CC(=O)[*:2])N(C)[*:1]; Abu(4,4,4-F3) = N[C@@H](CC(F)(F)F)C(=O)O; NMeAla(cPent) = CN[C@@H](CC1CCCC1)C(=O)O; NMeGly(cPent) = CN[C@H](C(=O)O)C1CCCC1; Pro(4,4-F2) = O=C(O)[C@@H]1CC(F)(F)CN1; NMeCha = CN[C@@H](CC1CCCCC1)C(=O)O; Azetidine(3,3-F2) = FC1(F)CN(*)C1; NMeChg = CN[C@H](C(=O)O)C1CCCCC1; NMeF = CN[C@@H](Cc1ccccc1)C(=O)O; NMeE = CN[C@@H](CCC(=O)O)C(=O)O; NMeD = CN[C@@H](CC(=O)O)C(=O)O; NMeL = CN[C@@H](CC(C)C)C(=O)O; NMeV = CN[C@H](C(=O)O)C(C)C; d(β3hA) = C[C@@H](N)CC(=O)O; NMeAbu = CC[C@H](NC)C(=O)O; Pip = O=C(O)[C@@H]1CCCCN1; NMeA = CN[C@@H](C)C(=O)O; NMeAib = CNC(C)(C)C(=O)O; Nle = CCCC[C@H](N)C(=O)O; Piperidide = C1CCN(*)CC1; dNMeA = CN[C@H](C)C(=O)O; Ac5c = NC1(C(=O)O)CCCC1; Aze = O=C(O)[C@@H]1CCN1; Ac4c = NC1(C(=O)O)CCC1; NEtG = CCNCC(=O)O; Sar = CNCC(=O)O

The target of this assay is T1, Kras and SOS1 (biotin-tagged human Kras loaded with GDP, His-tagged human SOS1) (Homo sapiens, UniProt P01116, G12D).
T1 construct: made in house; host or cells: E. coli (stated for Kras only)
T1 sequence (P01116 1-188 isoform P01116-2 G12D): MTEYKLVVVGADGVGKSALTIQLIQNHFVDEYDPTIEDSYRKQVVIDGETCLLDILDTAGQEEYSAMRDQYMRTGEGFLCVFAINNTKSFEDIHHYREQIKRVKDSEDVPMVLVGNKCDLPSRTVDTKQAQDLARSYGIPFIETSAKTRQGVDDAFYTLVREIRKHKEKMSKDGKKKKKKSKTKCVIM
Briefly: Protein-protein interaction inhibition between Kras and SOS1 (KrasGl2D-SOS PPI) using AlphaScreen. Type of assay: binding. The note with it: AlphaScreen; biotin-tagged human Kras loaded with GDP, His-tagged human SOS1; read-out: KRAS G12D-SOS PPI IC50. Put shortly: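 AlphaScreen format: Ni donor beads capture His-SOS1, streptavidin acceptor beads capture biotinylated Kras (E. coli-expressed, GDP-loaded post-purification). Excite 680 nm, read 520-620 nm.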
Regarding `CC[C@H](C)[C@@H]1NC(=O)[C@H](CC(C)C)N(C)C(=O)C[C@@H](C)N(C)C(=O)[C@H](C2CCCC2)N(C)C(=O)C2(CCC2)NC(=O)[C@@H]2CC(F)(F)CN2C(=O)[C@H](CCc2ccc(C(F)(F)F)c(Cl)c2)NC(=O)CN(C)C(=O)[C@H](Cc2ccc(C(F)(F)F)cc2)N(C)C(=O)CN(C)C(=O)CN(C)C1=O` [Compound 62] (cyclo([Ac4c][NMeGly(cPent)][NMedβ3hAla][NMeL]I[Sar][Sar][NMePhe(4-CF3)][Sar][hPhe(3-Cl-4-CF3)][Pro(4,4-F2)])), the IC50 – broadly, the concentration needed to halve the response being measured – turned out to be 0.0038 µM.

`CC[C@H](C)[C@@H]1NC(=O)[C@H](CC(C)C)N(C)C(=O)C[C@@H](C(=O)N(C)C)N(C)C(=O)[C@H](C2CCCC2)N(C)C(=O)[C@H](CC(F)(F)F)NC(=O)[C@H](CC(=O)N2CC(F)(F)C2)N(C)C(=O)[C@H](CCc2ccc(C(F)(F)F)c(Cl)c2)NC(=O)CN(C)C(=O)[C@H](CC2CCCCC2)N(C)C(=O)[C@@H]2CCN2C(=O)[C@H](C)N(C)C1=O` [Compound 222] ([NMeL]I[NMeA][Aze][NMeCha][Sar][hPhe(3-Cl-4-CF3)][NMeD](Azetidine(3,3-F2))[Abu(4,4,4-F3)][NMeGly(cPent)][NMeD]-NMe2; lactam N-11): the IC50 came to 0.02 µM.

For `CC[C@H](C)[C@@H]1NC(=O)[C@H](CC(C)C)N(C)C(=O)C[C@@H](C)NC(=O)[C@H](C(C)C)N(C)C(=O)C2(CCCC2)NC(=O)[C@@H]2CCCN2C(=O)[C@H](CCc2ccc(C(F)(F)F)c(Cl)c2)NC(=O)CN(C)C(=O)[C@H](CC2CCCCC2)N(C)C(=O)CN(C)C(=O)CN(CC)C1=O` [Compound 210] (cyclo([Ac5c][NMeV][d(β3hA)][NMeL]I[NEtG][Sar][NMeCha][Sar][hPhe(3-Cl-4-CF3)]P)), the half-inhibitory concentration (IC50) was 0.08 µM.

Regarding `CC[C@H](C)[C@@H]1NC(=O)[C@@H]2CCCCN2C(=O)C[C@@H](C)NC(=O)[C@H](CC(C)C)N(C)C(=O)C2(CCCC2)NC(=O)[C@H](CC(C)C)N(C)C(=O)[C@H](CCc2ccc(C(F)(F)F)c(Cl)c2)NC(=O)CN(C)C(=O)[C@H](CC2CCCCC2)N(C)C(=O)CN(C)C(=O)CN(C)C1=O` [Compound 213] (cyclo([Ac5c][NMeL][d(β3hA)][Pip]I[Sar][Sar][NMeCha][Sar][hPhe(3-Cl-4-CF3)][NMeL])), the 50% inhibitory concentration (IC50) was 0.048 µM.

In the case of `CC[C@H](C)[C@@H]1NC(=O)[C@H](C)N(C)C(=O)C[C@@H](C)NC(=O)[C@H](C2CCCC2)N(C)C(=O)C2(CCCC2)NC(=O)[C@@H]2CCCN2C(=O)[C@H](CCc2ccc(C(F)(F)F)c(Cl)c2)NC(=O)[C@@H](C)N(C)C(=O)[C@H](CC)N(C)C(=O)CN(C)C(=O)CN(C)C1=O` [Compound 413] (cyclo([Ac5c][NMeGly(cPent)][d(β3hA)][NMeA]I[Sar][Sar][NMeAbu][dNMeA][hPhe(3-Cl-4-CF3)]P)), the IC50 worked out at 0.05 µM.

As to `CC[C@H](C)[C@@H]1NC(=O)[C@H](CC(C)C)N(C)C(=O)C[C@@H](C(=O)N2CCCCC2)N(C)C(=O)[C@H](C(C)C)N(C)C(=O)C2(CCCC2)NC(=O)[C@@H]2CCCN2C(=O)[C@H](CCc2ccc(C(F)(F)F)c(Cl)c2)NC(=O)CN(C)C(=O)[C@H](CC2CCCCC2)N(C)C(=O)[C@@H]2CCN2C(=O)[C@H](CCC(=O)NC)N(C)C1=O` [Compound 180] ([NMeL]I[NMeE](NHMe)[Aze][NMeCha][Sar][hPhe(3-Cl-4-CF3)]P[Ac5c][NMeV][NMeD]-Piperidide; lactam N-11), the IC50 worked out at 0.011 µM.

`CCCC[C@@H]1NC(=O)[C@H](CCc2ccc(C(F)(F)F)c(Cl)c2)NC(=O)CN(C)C(=O)[C@H](CC2CCCC2)N(C)C(=O)[C@@H]2CCN2C(=O)[C@H](C)N(C)C(=O)[C@H]([C@@H](C)CC)NC(=O)[C@H](CC(C)C)N(C)C(=O)C[C@@H](C(=O)N2CCCCC2)N(C)C(=O)[C@H](CC(C)C)NC(=O)C(C)(C)N(C)C1=O` [Compound 691] ([NMeL]I[NMeA][Aze][NMeAla(cPent)][Sar][hPhe(3-Cl-4-CF3)][Nle][NMeAib]L[NMeD]-Piperidide; lactam N-11): the IC50 came out at 0.0071 µM.

In the case of `CC[C@H](C)[C@@H]1NC(=O)[C@H](C)N(C)C(=O)C[C@@H](C)NC(=O)[C@H](C(C)C)N(C)C(=O)[C@H](Cc2ccccc2)N(C)C(=O)[C@@H]2CCCN2C(=O)[C@H](CCc2ccc(C(F)(F)F)cc2)NC(=O)CN(C)C(=O)[C@H](Cc2ccc(Cl)cc2)N(C)C(=O)CN(C)C(=O)CN(C)C1=O` [Compound 865] (cyclo(I[Sar][Sar][NMePhe(4-Cl)][Sar][hPhe(4-CF3)]P[NMeF][NMeV][d(β3hA)][NMeA])), the IC50 was 0.055 µM.

In the case of `CC[C@H](C)[C@@H]1NC(=O)[C@H](CC(C)C)N(C)C(=O)C[C@@H](C(=O)N2CCCCC2)N(C)C(=O)[C@H](C2CCCCC2)N(C)C(=O)C2(CCCC2)NC(=O)[C@@H]2C[C@H](c3ccccc3)CN2C(=O)[C@H](CCc2ccc(C(F)(F)F)c(Cl)c2)NC(=O)CN(C)C(=O)[C@H](CC2CCCCC2)N(C)C(=O)[C@@H]2CCCN2C(=O)CN(C)C1=O` [Compound 1096] ([NMeL]I[Sar]P[NMeCha][Sar][hPhe(3-Cl-4-CF3)][Pro(cis-4-Ph)][Ac5c][NMeChg][NMeD]-Piperidide; lactam N-11), the IC50 came to 0.0026 µM.
